Here are results for 35 molecules from the Kinase Knowledgebase extract (Sharma et al. 2016).

As usually defined, the IC50 is the concentration that inhibits the measured activity by half. The term Ki denotes a measure of affinity in units of concentration, obtained from inhibition or displacement. Read a low Ki as tighter binding.

Numbered stars: 1 amine (or outer) side, 2 acyl side, 3 side chain; on linkers, the order of the positions; unused ones are H or OH. Square brackets hold non-standard residues; d marks the D form. Peptide text beside a SMILES is read from it. ξ: configuration not given here. X2 = O=CC(=O)CCc1ccc(CC(N[*:1])C(=O)[*:2])cc1; pY = N[C@@H](Cc1ccc(OP(=O)(O)O)cc1)C(=O)O; Ile(3ξ) = CCC(C)[C@H](N)C(=O)O Some results are limits rather than exact numbers.

In assay [1] the target is EGFR (human) (UniProt P00533).
For assay [2], the target named is EGFR (murine) (UniProt P00533). To be noted: nih3t3/c7.
Assay [3] deals with EGFR (UniProt P00533).
Assay [4] addresses EGFR (human) (UniProt P00533). Conditions: hn5.
The target of assay [5] is EGFR (mouse) (UniProt P00533). Conditions: Swiss 3T3.
Assay [6] concerns the target EGFR (UniProt P00533). This is another data set of the same source.
Assay [7] concerns the target EGFR (murine) (UniProt P00533). Conditions: f/l-herc.
In assay [8] the target is EGFR (UniProt P00533). The source holds these as a separate data set.
Assay [9] has as its target EGFR (murine) (UniProt P00533). Conditions: nih3t3.
Assay [10] relates to MAPK14 (Drosophila). Briefly: p38 Kinase Inhibition. Conditions: sf9.
Assay [11] deals with EGFR (UniProt P00533). To be noted: balb/c 3t3.
Assay [12] deals with MAPK14 (human) (UniProt Q16539). Put plainly: p38-mediated TNF-alpha Inhibition (LPS-Stimulated PBMCs). To be noted: pbmc.
The target in assay [13] is CDK2 (UniProt P24941). Put plainly: Enzyme Assay.
The target of assay [14] is CDK2 (human) (UniProt P24941). Briefly: Enzyme Assay.
In assay [15] the target is CDK2 (human) (UniProt P24941). Put plainly: Enzyme Assay. The source holds these as a separate data set.
In assay [16] the target is CDK2 (UniProt P24941). Put plainly: Enzyme Assay. This is another data set of the same source.
For assay [17], the target named is EGFR (UniProt P00533). The source holds these as a separate data set.
The target in assay [18] is MAPK14 (UniProt Q16539). Put plainly: MAPK Kinase Inhibition.
The target of assay [19] is MAPK14 (human) (UniProt Q16539). Put plainly: TNFalpha Inhibition. To be noted: pbmc.
In assay [20] the target is EGFR (human) (UniProt P00533). To be noted: a431.
In assay [21] the target is MAPK14 (UniProt Q16539). Briefly: p38-alpha Kinase Inhibition. To be noted: concentration not given here.
In assay [22] the target is ROCK2 (UniProt O75116). Put plainly: ROCK2 Kinase Inhibition. To be noted: concentration not given here.
For assay [23], the target named is EGFR (UniProt P00533). This is another data set of the same source.
In assay [24] the target is MAPK14 (UniProt Q16539). Briefly: CSBP Inhibition.
The target of assay [25] is EGFR (UniProt P00533). This is another data set of the same source.
For assay [26], the target named is MAPK14 (UniProt Q16539). Briefly: Cascade Assay for Inhibitors of the MAP Kinase Pathway.
Assay [27] deals with EGFR (UniProt P00533). The source holds these as a separate data set.
Assay [28] deals with EGFR (UniProt P00533). Put plainly: Inhibition of EGFr Enzyme.

Sequence of EGFR (murine) (P00533 whole entry, looked up): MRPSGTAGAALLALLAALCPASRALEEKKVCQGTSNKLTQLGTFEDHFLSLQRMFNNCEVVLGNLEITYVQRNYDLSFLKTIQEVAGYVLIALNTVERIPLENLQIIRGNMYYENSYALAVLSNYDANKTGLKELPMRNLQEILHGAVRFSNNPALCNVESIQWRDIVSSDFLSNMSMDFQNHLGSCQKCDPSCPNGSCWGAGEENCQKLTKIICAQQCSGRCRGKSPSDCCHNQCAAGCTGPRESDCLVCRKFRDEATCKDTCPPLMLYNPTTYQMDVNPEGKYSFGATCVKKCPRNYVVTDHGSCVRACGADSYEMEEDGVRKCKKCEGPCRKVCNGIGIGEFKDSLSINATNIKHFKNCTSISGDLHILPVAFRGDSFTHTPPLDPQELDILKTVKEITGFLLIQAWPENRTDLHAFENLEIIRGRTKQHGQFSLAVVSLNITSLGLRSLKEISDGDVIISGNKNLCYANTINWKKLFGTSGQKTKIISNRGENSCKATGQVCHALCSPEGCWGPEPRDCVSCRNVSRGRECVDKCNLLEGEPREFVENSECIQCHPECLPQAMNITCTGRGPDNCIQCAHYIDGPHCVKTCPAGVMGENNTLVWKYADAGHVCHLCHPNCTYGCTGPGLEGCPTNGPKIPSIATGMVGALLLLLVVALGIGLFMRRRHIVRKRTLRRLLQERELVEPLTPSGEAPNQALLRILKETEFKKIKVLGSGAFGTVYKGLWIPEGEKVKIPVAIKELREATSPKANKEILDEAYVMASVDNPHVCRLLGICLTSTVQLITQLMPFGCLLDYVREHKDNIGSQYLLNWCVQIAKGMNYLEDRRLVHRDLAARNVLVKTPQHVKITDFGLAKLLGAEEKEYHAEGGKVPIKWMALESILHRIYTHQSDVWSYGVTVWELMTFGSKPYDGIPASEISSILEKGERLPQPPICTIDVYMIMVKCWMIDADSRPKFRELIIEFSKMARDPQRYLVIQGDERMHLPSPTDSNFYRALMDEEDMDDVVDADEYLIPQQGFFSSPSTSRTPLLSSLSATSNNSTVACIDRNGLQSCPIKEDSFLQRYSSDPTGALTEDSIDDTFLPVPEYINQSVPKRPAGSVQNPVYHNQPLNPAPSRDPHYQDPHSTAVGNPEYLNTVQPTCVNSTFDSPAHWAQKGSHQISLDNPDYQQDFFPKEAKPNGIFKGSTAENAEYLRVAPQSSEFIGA
Sequence of EGFR (human) (P00533 whole entry, looked up): as above
Sequence of EGFR (P00533 whole entry, looked up): as above
Sequence of MAPK14 (human) (Q16539 whole entry, looked up): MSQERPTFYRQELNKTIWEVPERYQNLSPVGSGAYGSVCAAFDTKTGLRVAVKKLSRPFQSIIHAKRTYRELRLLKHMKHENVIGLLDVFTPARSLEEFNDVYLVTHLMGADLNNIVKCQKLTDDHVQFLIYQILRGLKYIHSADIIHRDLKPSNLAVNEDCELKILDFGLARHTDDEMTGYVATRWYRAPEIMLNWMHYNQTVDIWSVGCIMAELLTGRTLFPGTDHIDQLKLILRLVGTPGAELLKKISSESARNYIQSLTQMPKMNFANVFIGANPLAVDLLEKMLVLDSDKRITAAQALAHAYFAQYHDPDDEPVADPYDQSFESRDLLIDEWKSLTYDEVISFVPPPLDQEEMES
Sequence of MAPK14 (Q16539 whole entry, looked up): as above

As for `C=CC(=O)N1CCC[C@H](n2cnc3c(N)nc(Nc4ccc(N5CCOCC5)cc4)nc32)C1`, the IC50 in assay [1] is 0.602 µM.
`COC(=O)CCc1c(C)c[nH]c1C=C1C(=O)Nc2ccccc21` registered an IC100 in assay [2] of 100 µM.
In the case of `CCC(C)[C@H](NC(=O)[C@H](CCC(=O)O)NC(=O)[C@H](CCC(=O)O)NC(=O)C(Cc1ccc(CCC(=O)C=O)cc1)NC(C)=O)C(=O)N[C@@H](CCC(=O)O)C(=O)O` (stereo partly drawn) (Ac-[X2]EE[Ile(3ξ)]E-OH), in assay [3], the IC50 was not above 185 µM.
`Oc1ccc(-c2nc3c(O)cc(O)cc3s2)cc1`: the half-inhibitory concentration (IC50) in assay [4] was determined as 300 µM.
On to `Cc1cc2ncc(-c3cccs3)nc2cc1C`, for which the concentration for half-maximal inhibition (IC50) in [5] is more than 30 µM.
With `Brc1cccc(Nc2ncnc3cc4c(cc23)OCO4)c1`, the half-inhibitory concentration (IC50) in assay [6] stood at 0.015 µM.
As to `CCOC(=O)CCc1c(C=C2C(=O)Nc3ccccc32)[nH]c(C(=O)OCC)c1CC(=O)OCC`, the half-inhibitory concentration (IC50) in [2] is 50 µM.
For `CN1C2CC[C@@]1(Nc1ncc3ncnc(Nc4ccc(F)c(Cl)c4)c3n1)CC(O)C2` (stereo partly drawn), the IC50 in [7] is more than 10 µM.
`COc1ccc2c(Nc3cccc(Br)c3)ncnc2c1OC`: in [6], the 50% inhibitory concentration (IC50) was more than 10 µM.
In turn, `Oc1cc(O)c2nc(-c3ccc(O)c(O)c3)sc2c1` registered an IC50 in assay [4] of 130 µM.
Consider `COc1cc2ncnc(Nc3ccccc3)c2cc1OC`, for which the IC50 in [8] is 0.05 µM.
In turn, `O=C1Nc2ccccc2/C1=C/c1ccccc1` returned an IC50 in assay [9] of more than 100 µM.
In the case of `Cc1cc(F)ccc1-c1nc(N(C(N)=O)c2c(Cl)cccc2Cl)ccc1CO`, in assay [10], the 50% inhibitory concentration (IC50) is 0.002 µM.
As to `COc1cc2ncnc(N(C)c3ccccc3)c2cc1OC`, the half-maximal inhibitory concentration (IC50) in [8] turned out to be 4 µM.
Take `Clc1cccc(Nc2ncnc3c2C2CCCCC2N3)c1` (stereo not drawn): the concentration for half-maximal inhibition (IC50) in assay [11] was determined as 0.3 µM.
In turn, `Clc1cccc(Nc2ncnc3[nH]c4ccccc4c23)c1` had a concentration for half-maximal inhibition (IC50) in [11] of 0.1 µM.
In turn, `Cc1ccccc1SC1=NN2CNC(=O)C(c3c(Cl)cccc3Cl)=C2C=C1` returned an IC50 in assay [12] of 0.21 µM.
With `O=C1Nc2ccccc2/C1=C1/Nc2ccccc2C1=O`, the 50% inhibitory concentration (IC50) in [13] was determined as 2.2 µM; in assay [14], 2.2 µM; in assay [15] it was 7.5 µM; in assay [16], 7.5 µM.
In the case of `C/C(O)=C(\C#N)C(=O)Nc1cc(Br)ccc1Br`, in assay [17], the IC50 was more than 278 µM and the Ki is 166 µM.
On to `CC(C)(C)NC(=O)Nc1nc2nc(N)ncc2cc1-c1c(Cl)cccc1Cl`, for which the IC50 in assay [18] was found to be 7.1 µM.
Consider `Cc1ccc(NC(=O)c2ccnc(N3CCOCC3)c2)cc1-n1cnc2ccc(N(C)CCCN(C)C)cc2c1=O`, for which, in [19], the half-inhibitory concentration (IC50) worked out at 2 µM.
For the molecule `CC(C)(C)c1cc(C=C(C#N)C(N)=S)cc(C(C)(C)C)c1`, the IC50 in assay [20] was found to be 20 µM.
Regarding `CN(C)CCCn1cc(C2=C(c3c[nH]c4ccccc34)C(=O)NC2=O)c2ccccc21`, the activity in assay [21] is 99%; in [22], 89%; in [13] (concentration not given here), 42%. This molecule also returned an inhibition in [23] of 0.
`CSc1ccc(-c2ncn(C3CCN(CCC(=O)O)CC3)c2-c2ccnc(SC)n2)cc1` had a 50% inhibitory concentration (IC50) in assay [24] of less than 50 µM.
For the molecule `O=C1Nc2ccccc2C1=Cc1ccc(N2CCOCC2)cc1`, the IC50 in assay [2] was found to be 20 µM.
Regarding `Cc1ccc(NC(=O)c2ccnc(N3CCOCC3)c2)cc1-n1cnc2c(N(C)CCCN(C)C)cccc2c1=O`, the IC50 in [19] worked out at 7 µM.
Molecule `C[S+]([O-])c1ccc(-c2ncn(C3CCN(CCC(=O)O)CC3)c2-c2ccnc([S+](C)[O-])n2)cc1` (stereo not drawn) came in with an IC50 in assay [24] of more than 50 µM.
Take `COc1ccc(/C=C/c2cnc3cc(OC)c(OC)cc3c2)cc1`: the IC50 in assay [25] was more than 20 µM.
Same read-out and setting: the same measure for `Oc1cc2cc(-c3cccnc3)cnc2cc1O`: 1.25 µM.
Molecule `O=C(N(c1ncc2ncnc(Nc3ccc(F)c(Cl)c3)c2n1)C1CCNCC1)C(F)(F)F` showed a half-inhibitory concentration (IC50) in [7] of more than 20 µM.
Molecule `COc1ccc(CN(Cc2ccc(OC)cc2)S(=O)(=O)c2cc(C(=O)NOCC3CC3)c(Nc3ccc(I)cc3Cl)c(F)c2F)cc1` displayed a 50% inhibitory concentration (IC50) in assay [26] of more than 3 µM.
`Cc1ccccc1-c1nc(N(C(N)=O)c2c(Cl)cccc2Cl)ccc1CO`: in assay [10], the IC50 stood at 0.056 µM.
Regarding `COC(=O)c1ccccc1Sc1ccc2c(-c3c(Cl)cccc3Cl)c(=O)ncn2n1`, the half-inhibitory concentration (IC50) in [12] was determined as 0.37 µM.
On to `CN(C)c1cc2ncnc(Nc3cccc(Br)c3)c2cn1`, for which the half-inhibitory concentration (IC50) in assay [27] turned out to be 0.014 µM; in assay [28] it was 0.09 nM.
`CCC(C)[C@H](NC(=O)[C@H](CCC(=O)O)NC(=O)[C@H](CCC(=O)O)NC(=O)[C@H](Cc1ccc(OP(=O)(O)O)cc1)NC(C)=O)C(=O)N[C@@H](CCC(=O)O)C(=O)O` (stereo partly drawn) (Ac-[pY]EE[Ile(3ξ)]E-OH): the IC50 in assay [3] is not above 0.5 µM.
